# “And” between values parts separate entries of the source, which are not always exact repeats. Equal values may be shown once. Read-outs that look alike come from different tables or passages of the source.
# Molecular target: T1, 30S-bound IF2 (30S IC) (Escherichia coli, UniProt P0A705)
# T1 construct: 6xHis (N); made in house
# Test: ppGpp (or GDP) to GTP competitive assay for 30S IC formation by MST
# Assay type: binding
# Method: MST was calculated from the respective fluorescence time dependencies (S3 Fig). […] Symbols as in (B). […] Continuous lines indicate nonlinear regression fittings with quadratic (B and E) or same-site competition (G) functions. Three measurements were performed; mean and standard deviations are plotted (S1 Data).
# […] Symbols are as indicated, 3 measurements were performed, and mean and standard deviation are plotted (S1 Data). Continuous lines show nonlinear regression fittings with a same-site inhibition model. […] (PDF) Click here for additional data file.
# T1 sequence (P0A705 whole entry, looked up): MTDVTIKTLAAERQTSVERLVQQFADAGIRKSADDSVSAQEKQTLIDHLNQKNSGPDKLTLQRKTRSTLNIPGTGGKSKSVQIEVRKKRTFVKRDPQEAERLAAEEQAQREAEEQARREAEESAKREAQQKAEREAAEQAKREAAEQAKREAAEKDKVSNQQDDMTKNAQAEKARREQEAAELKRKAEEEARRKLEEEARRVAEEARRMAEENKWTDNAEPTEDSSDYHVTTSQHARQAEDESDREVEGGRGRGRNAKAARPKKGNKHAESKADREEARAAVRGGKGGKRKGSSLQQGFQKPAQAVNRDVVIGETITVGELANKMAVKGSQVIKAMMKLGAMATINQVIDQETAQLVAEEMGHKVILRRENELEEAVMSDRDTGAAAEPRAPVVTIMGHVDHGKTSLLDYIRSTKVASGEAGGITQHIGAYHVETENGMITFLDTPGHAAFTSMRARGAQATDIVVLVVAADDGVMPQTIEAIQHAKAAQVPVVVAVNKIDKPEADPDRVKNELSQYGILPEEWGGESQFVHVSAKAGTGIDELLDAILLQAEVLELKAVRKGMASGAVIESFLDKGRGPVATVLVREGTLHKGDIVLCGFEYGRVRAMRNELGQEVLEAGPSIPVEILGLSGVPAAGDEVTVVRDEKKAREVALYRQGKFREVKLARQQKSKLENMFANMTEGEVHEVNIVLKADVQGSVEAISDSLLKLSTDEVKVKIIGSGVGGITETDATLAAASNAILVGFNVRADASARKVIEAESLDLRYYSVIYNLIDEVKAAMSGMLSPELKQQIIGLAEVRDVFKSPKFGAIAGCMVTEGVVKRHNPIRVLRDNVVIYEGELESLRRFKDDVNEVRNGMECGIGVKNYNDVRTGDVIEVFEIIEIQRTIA
smiles,measurement,setting,value
Nc1nc2c(ncn2[C@@H]2O[C@H](COP(=O)(O)OP(=O)(O)O)[C@@H](OP(=O)(O)OP(=O)(O)O)[C@H]2O)c(=O)[nH]1 [ppGpp],MST Replicates (a.u.),"mInfA, Log [ppGpp] 2.10",972.70 a.u. and 973.61 a.u. and 973.64 a.u.
same,MST Average,"mInfA, Log [ppGpp] 2.40",964.30 a.u.
same,MST Replicates (a.u.),"mInfA, Log [ppGpp] 2.40",963.79 a.u.
same,MST Average,"mInfA, Log [ppGpp] 2.70",958.86 a.u.
same,MST Average,"mInfA, Log [ppGpp] -0.01",1048.67 a.u.
same,MST Average,"mInfA, Log [ppGpp] -0.31",1053.58 a.u.
same,MST Average,"mInfA, Log [ppGpp] -0.61",1049.04 a.u.
same,MST Average,"mMF1, Log [ppGpp] 0.29",1016.08 a.u.
same,MST Average,"mMF1, Log [ppGpp] 0.59",1007.03 a.u.
same,MST Average,"mMF1, Log [ppGpp] 0.89",999.03 a.u.
same,MST Average,"mMF1, Log [ppGpp] 1.19",986.05 a.u.
same,MST Replicates (a.u.),"mMF1, Log [ppGpp] 1.19",985.88 a.u. and 986.00 a.u. and 986.26 a.u.
same,MST Average,"mMF1, Log [ppGpp] 1.49",972.28 a.u.
same,MST Replicates (a.u.),"mMF1, Log [ppGpp] 1.49",971.54 a.u. and 972.59 a.u. and 972.70 a.u.
same,MST Average,"mMF1, Log [ppGpp] 1.80",959.11 a.u.
same,MST Replicates (a.u.),"mMF1, Log [ppGpp] 1.80",958.37 a.u. and 959.24 a.u. and 959.71 a.u.
same,MST Average,"mMF1, Log [ppGpp] 2.10",947.40 a.u.
same,MST Replicates (a.u.),"mMF1, Log [ppGpp] 2.10",946.23 a.u. and 947.67 a.u. and 948.30 a.u.
same,MST Average,"mMF1, Log [ppGpp] 2.40",939.79 a.u.
same,MST Replicates (a.u.),"mMF1, Log [ppGpp] 2.40",938.92 a.u.
same,MST Average,"mMF1, Log [ppGpp] 2.70",942.02 a.u.
same,MST Average,"mMF1, Log [ppGpp] -0.01",1022.73 a.u.
same,MST Average,"mMF1, Log [ppGpp] -0.31",1023.54 a.u.
same,MST Average,"mMF1, Log [ppGpp] -0.61",1029.40 a.u.
same,IC50,"mRNA mInfA, read-out: IC50 Average",29 µM
same,IC50,"mRNA mInfA, read-out: IC50 Replicates",28.5 µM and 29 µM and 29.5 µM
same,IC50,"mRNA mMF1, read-out: IC50 Average",8.64 µM
same,IC50,"mRNA mMF1, read-out: IC50 Replicates",8.44 µM and 8.71 µM and 8.75 µM
same,IC50,"mRNA mTufA, read-out: IC50 Average",131 µM
same,IC50,"mRNA mTufA, read-out: IC50 Replicates",130 µM and 131 µM and 132 µM
same,MST Average,"mTufA, Log [ppGpp] 0.29",1135.97 a.u.
same,MST Average,"mTufA, Log [ppGpp] 0.59",1126.95 a.u.
same,MST Average,"mTufA, Log [ppGpp] 0.89",1118.40 a.u.
same,MST Average,"mTufA, Log [ppGpp] 1.19",1113.08 a.u.
same,MST Replicates (a.u.),"mTufA, Log [ppGpp] 1.19",1112.21 a.u. and 1113.44 a.u. and 1113.60 a.u.
same,MST Average,"mTufA, Log [ppGpp] 1.49",1095.20 a.u.
same,MST Replicates (a.u.),"mTufA, Log [ppGpp] 1.49",1094.85 a.u. and 1094.92 a.u. and 1095.85 a.u.
same,MST Average,"mTufA, Log [ppGpp] 1.80",1070.12 a.u.
same,MST Replicates (a.u.),"mTufA, Log [ppGpp] 1.80",1069.34 a.u. and 1070.42 a.u. and 1070.61 a.u.
same,MST Average,"mTufA, Log [ppGpp] 2.10",1051.04 a.u.
same,MST Replicates (a.u.),"mTufA, Log [ppGpp] 2.10",1050.31 a.u. and 1051.38 a.u. and 1051.44 a.u.
same,MST Average,"mTufA, Log [ppGpp] 2.40",1030.04 a.u.
same,MST Average,"mTufA, Log [ppGpp] 2.70",1004.77 a.u.
same,MST Average,"mTufA, Log [ppGpp] -0.01",1139.93 a.u.
same,MST Average,"mTufA, Log [ppGpp] -0.31",1146.28 a.u.
same,MST Average,"mTufA, Log [ppGpp] -0.61",1160.80 a.u.
same,IC50,"read-out: IC50 of 30S IC formation, mInfA, competition with 50 μM GTP",29 ± 1 µM
same,IC50,"read-out: IC50 of 30S IC formation, mMF1, competition with 50 μM GTP",8.6 ± 0.2 µM
same,IC50,"read-out: IC50 of 30S IC formation, mTufA with SRs I–III removed (+371)",50 ± 5 µM
same,IC50,"read-out: IC50 of 30S IC formation, mTufA, competition with 50 μM GTP",132 ± 1 µM

# — PMC7010297, “How the initiating ribosome copes with ppGpp to translate mRNAs” (PLoS Biology, 2020)
